Reference: US11927585B2, “Solvent-based inks and coatings for food contact applications” (SUN CHEMICAL CORPORATION, priority 2020, dated 2024)
Values belong to the molecule of their own block, whether it stands above or below them.

What was measured:
[1] = Specific migration limit (SML) from regulation or hazard assessment (TTC, VEGA QSAR, Cramer Class); settings: for SML (or restriction): Source of SML or restriction: HA (internal hazard assessment)
[2] = Worst-case calculation (100% migration), standard EU Cube exposure model; settings: for Worst-case calculation as a percentage of SML (or restriction), EU Cube: 2.0 g/m^2 dry film
[3] = Worst-case calculation, Application 2 cheese packaging wrap exposure scenario; settings: 100% migration, 2.0 g/m^2 dry film
[4] = Worst-case calculation, Application 1 yoghurt pot lid exposure scenario; settings: 100% migration, 2.0 g/m^2 dry film

SML (or restriction) [1]: 0.09 mg substance/kg food
SMILES: O=Cc1ccc(Cl)cc1 [4-Chlorobenzaldehyde]

Worst-case calculation as a percentage of SML (or restriction), EU Cube ([2]; product SBDEV976, 100% migration): 0.4 percentage of SML (or restriction)
Worst-case calculation as a percentage of SML (or restriction), EU Cube ([2]; product SBDEV1286, 100% migration): 0.4 percentage of SML (or restriction)
Worst Case Calculation of migration in EU Cube model (as a percentage of SML) ([2]; substance in ink SBDEV976 (Ex. 4C Cyan), 100% migration, dry coat weight 2.0 g/m^2): 0.4 percentage of SML
Worst-case calculation as a percentage of SML (or restriction), Application 2 ([3]; product SBDEV976): 0.6 percentage of SML (or restriction)
Worst-case calculation as a percentage of SML (or restriction), Application 2 ([3]; product SBDEV1286): 0.6 percentage of SML (or restriction)
Worst-case calculation as a percentage of SML (or restriction), Application 1 ([4]; product SBDEV976): 0.2 percentage of SML (or restriction)
Worst-case calculation as a percentage of SML (or restriction), Application 1 ([4]; product SBDEV1286): 0.2 percentage of SML (or restriction)
SMILES: c1ccc2ccccc2c1 [0000091-20-3, Naphthalene]

SMILES: OCCNCCO [0000111-42-2, Diethanolamine]
Worst Case Calculation of migration in EU Cube model: Basis for Safety outcome ([2]; substance in ink SBDEV977 (Ex. 4A Yellow), volatile substance): Converter

SMILES: CCCOC(CC)OCCC [0004744-11-0, Propane, 1,1-dipropoxy-]
SML or Restriction (mg substance/kg food) ([1]; source HA (internal hazard assessment), self-derived SML, EU Cube model): 0.09 mg substance/kg food

SML (or restriction) [1]: 4.98 mg substance/kg food
SMILES: O=C1NCCN1 [2-Imidazolidinone]

SML (or restriction) [1]: 0.09 mg substance/kg food
SMILES: O=C(O)c1ccc(-c2ccccc2)cc1 [4-Phenylbenzoic Acid]

SML (or restriction) [1]: 0.09 mg substance/kg food
SMILES: CCCCCCCC/C=C\CCCCCCCC(=O)OCC [Ethyl Oleate]

SML (or restriction) [1]: 0.09 mg substance/kg food
SMILES: N#Cc1ccc(-c2ccccc2)cc1 [4-Phenylbenzonitrile]

SMILES: CCCOC(CC)OCCC [Propane, 1,1-dipropoxy-]
SML (or restriction) [1]: 0.09 mg substance/kg food

SML (or restriction) [1]: 0.09 mg substance/kg food
SMILES: CCCC1OC(CCC)OC(CCC)O1 (stereo not shown) [2,4,6-tripropyl-1,3,5-Trioxane]
